From patent US6506756B2, “Substituted imidazoles as dual histamine H1 and H3 agonists or antagonists” (Schering Corporation, priority 2000, dated 2003)
Structures can show the parent of a compound that is named as a salt.

Assays:
Histamine H1 receptor = target: T1, Histamine H1 receptor (Rattus norvegicus, UniProt P31390); assay: H1-receptor binding assay (rat brain membranes, [3H]pyrilamine); details: for Ki: Cheng-Prusoff from IC50, HCl salt, read-out: H1 Ave Ki; for inhibition at 1 µg/mL: concentration not given (top test concentration 1 μg/ml), HCl salt
T1 construct: The tissue source was male Sprague-Dawley rat brain; tissue Rockland Corporation, Gilbertsville, Pa; host or cells: male Sprague-Dawley rat brain membranes
Source text: General Procedure for H1-Receptor Binding Assay
The procedure used was based on that disclosed in V.T. Tran et al, “Histamine H1 receptors identified in mammalian brain membranes with [H-3]mepyramine”, Proc. Natl. Acad. Sci. U.S.A. 75 (1978) 6290-6294.
I. Tissue Preparation Protocol for Histamine H1 Receptor Binding Assay:
1. The tissue source was male Sprague-Dawley rat brain. These were purchased, stripped and frozen (available from Rockland Corporation, Gilbertsville, Pa.). The buffer used was ice-cold 50 mM Tris-HCl, pH 7.5. (The pH was determined at 25° C.)
2. The brains were spread out on plastic wrap on the benchtop and allowed to thaw for 10-15 min. After this, everything was kept ice-cold.
3. Two brains were put in each 50 ml round bottom centrifuge tube and 25 ml of buffer was added. Then they were broken up with a Polytron (from Brinkmann Instruments, Westbury, N.Y.) equipped with a PT-10 tip at setting 6 for 30 sec.
4. The volume in the tube was brought up to 45 ml and mixed and the particulate material was centrifuged at 1000×g (3000 rpm, SS-34 rotor) for 10 min to remove nuclei and unbroken cells.
5. Pellets were discarded and the supernatants were centrifuged 10 min at 50,000×g (20,000 rpm, SS-34 rotor).
6. The high-speed pellets were resuspended in a volume of Tris buffer equal to the original ([…]), the contents of all tubes were pooled, and a sample was taken for BCA protein assay. The material was aliquotted, 45 ml per round-bottom tube, and the resuspension was recentrifuged. The yield of protein was approximately 20 mg/brain, so there was about 40 mg of protein per tube.
7. Pellets were frozen at −80° C.
1. FDCL and comparative compounds for assay were independently solubilized at 1mg/ml DMSO by vortexing, or if necessary by sonication. The first dilution, 100-fold, was made in 50 mM Tris-HCl, pH 7.5, at room temperature. The three or four subsequent ten-fold serial dilutions were made in 1% DMSO/50 mM Tris-HCl, pH 7.5. Drug solutions and assay plates were kept at room temperature during the course of the assay set up.
2. Test compounds were assayed at four or five concentrations: 1, 0.1, 0.01, 0.001, and 0.0001 μg/ml. Twenty μl of drug solution was pipeted into each of three wells.
3. [^3H]Pyrilamine was diluted approximately 2000-fold with ice-cold […] Tris-HCl, pH 7.5 (to a working concentration of 20-25 nM), and put on ice.
4. A frozen tissue pellet was thawed in a 25° C. water bath, resuspended in 50 mM Tris-HCl, pH 7.5, at 1.7-2 mg/ml by brief break-up on the Polytron, and put on ice.
5. Twenty μl of diluted [^3H]pyrilamine was added to each well.
6. One hundred fifty μl of tissue suspension was added to each well.
7. The top of the plate was covered and it was placed in a 25° C. shaking water bath (about 60 oscillations/min) for 30 min.
8. Samples were filtered on a Tomtec Mach 2 harvester (available from Tomtec Corporation, Orange, Conn.) through a GF/B filter mat (from Wallac, Inc., Gaithersburg, Md.) presoaked in 0.3% polyethylenimine. Each sample was thrice washed with ice-cold 50 mM Tris-HCl, pH 7.5 dried 20 sec on the Tomtec, and dried 3-4 min in a microwave oven on a paper towel. The filter was impregnated with MELTILEX brand wax scintillant (from Wallac Corporation) and counted on a Betaplate scintillation counter (from Wallac Corporation).
9. Specific binding was determined as the difference between total and nonspecific binding. The percent inhibition in the presence of inhibitor or standard was determined using the formula: [1-(sample binding-nonspecific binding)/specific binding]×100 For compounds that inhibit more than 50% at 1 μg/ml, an IC50 value was interpolated from proximate concentrations. […]

H3 receptors = target: T2, H3 receptors (Cavia porcellus, UniProt Q9JI35); assay: H3-receptor binding assay (guinea pig brain membranes, [3H]R-α-methyl histamine or [3H]Nα-methyl histamine); details: for inhibition at 2 µg/mL: final concentration 2 μg/ml, HCl salt; for Ki: HCl salt of the indicated compound, read-out: H3 Ave Ki
T2 construct: The source of the H3 receptors in this experiment was guinea pig brain; from tissue; host or cells: guinea pig brain membranes
Protocol: General Procedure for H3-Receptor Binding Assay
The source of the H3 receptors in this experiment was guinea pig brain. The animals weighed 400-600 g. The brain tissue was homogenized with a solution of 50 mM Tris, pH 7.5. The final concentration of tissue in the homogenization buffer was 10% w/v. The homogenates were centrifuged at 1,000×g for 10 min. in order to remove clumps of tissue and debris. The resulting supernatants were then centrifuged at 50,000×g for 20 min. in order to sediment the membranes, which were next washed three times in homogenization buffer (50,000×g for 20 min. each). The membranes were frozen and stored at −70° C. until needed.
All compounds to be tested were dissolved in DMSO and then diluted into the binding buffer (50 mM Tris, pH 7.5) such that the final concentration was 2 μg/ml with 0.1% DMSO. Membranes were then added (400 μg of protein) to the reaction tubes. The reaction was started by the addition of 3 nM [^3H]R-α-methyl histamine (8.8 Ci/mmol) or 3 nM [^3H]N^α-methyl histamine (80 Ci/mmol) and continued under incubation at 30° C. for 30 min. Bound ligand was separated from unbound ligand by filtration, and the amount of radioactive ligand bound to the membranes was quantitated by liquid scintillation spectrometry. All incubations were performed in duplicate and the standard error was always less than 10%. Compounds that inhibited more than 70% of the specific binding of radioactive ligand to the receptor were serially diluted to determine a Ki (nM). The results are given in the Table 1 for the HCl salt of the indicated compound.

T2 sequence (Q9JI35 whole entry): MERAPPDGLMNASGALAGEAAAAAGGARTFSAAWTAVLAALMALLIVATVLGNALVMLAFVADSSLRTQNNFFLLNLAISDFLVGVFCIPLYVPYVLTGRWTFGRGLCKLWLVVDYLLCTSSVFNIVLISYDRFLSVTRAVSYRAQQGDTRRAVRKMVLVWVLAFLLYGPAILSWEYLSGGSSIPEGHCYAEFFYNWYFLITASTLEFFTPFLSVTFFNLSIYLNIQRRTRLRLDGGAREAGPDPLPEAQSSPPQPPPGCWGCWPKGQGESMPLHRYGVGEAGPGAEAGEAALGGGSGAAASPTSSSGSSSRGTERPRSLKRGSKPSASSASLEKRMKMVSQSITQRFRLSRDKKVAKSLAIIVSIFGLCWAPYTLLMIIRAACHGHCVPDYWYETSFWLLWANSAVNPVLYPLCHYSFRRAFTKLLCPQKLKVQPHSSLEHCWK
T1 sequence (P31390 whole entry): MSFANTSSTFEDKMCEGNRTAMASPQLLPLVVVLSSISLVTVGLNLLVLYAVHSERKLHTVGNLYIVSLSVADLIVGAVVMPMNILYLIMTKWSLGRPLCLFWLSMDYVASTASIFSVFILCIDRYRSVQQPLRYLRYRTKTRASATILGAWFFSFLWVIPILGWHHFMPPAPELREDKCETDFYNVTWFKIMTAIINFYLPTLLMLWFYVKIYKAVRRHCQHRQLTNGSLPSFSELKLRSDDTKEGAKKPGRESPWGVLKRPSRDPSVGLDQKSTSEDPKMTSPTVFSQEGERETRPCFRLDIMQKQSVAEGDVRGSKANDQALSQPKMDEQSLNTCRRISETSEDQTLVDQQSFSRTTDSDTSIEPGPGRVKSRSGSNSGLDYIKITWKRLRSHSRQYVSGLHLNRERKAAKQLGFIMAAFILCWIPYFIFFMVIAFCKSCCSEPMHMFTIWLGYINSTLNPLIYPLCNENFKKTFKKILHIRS

| Structure (SMILES) | melting point | Ki (Histamine H1 receptor) [µM] | inhibition at 1 µg/mL (Histamine H1 receptor) [%] | inhibition at 2 µg/mL (H3 receptors) [%] | Ki (H3 receptors) [µM] |
| --- | --- | --- | --- | --- | --- |
| Clc1ccc2c(c1)CCc1cccnc1C2C1CCN(CCCCCc2c[nH]cn2)CC1 (centres unmarked) (as salt: hydrochloride) [Example 13, 8-chloro-6,11-dihydro-11-[1-[5-(1H-imidazol-4-yl)pentyl]-4-piperidinyl]-5H-benzo[5,6]cyclohepta[1,2-b]pyridine] | 164 to 170 °C (dec.) |  |  |  |  |
| O=C(c1c[nH]cn1)N1CCN(C2c3ccc(Cl)cc3CCc3cccnc32)CC1 (centres unmarked) |  | 0.3 | 42 | 18 |  |
| Clc1ccc2c(c1)CCc1cccnc1C2=C1CCN(CCCCc2c[nH]cn2)CC1 |  | 0.0105 |  |  | 0.0252 |
| Clc1ccc2c(c1)CCc1cccnc1C2N1CCN(Cc2c[nH]cn2)CC1 (racemic) [1-(8-Chloro-6,11-dihydro-5H-benzo[5,6]cyclohepta[1,2-b]pyridin-11-yl)-4-[(1H-imidazol-4-yl)-methyl]-piperazine] |  | 0.0368 |  |  | 0.15 |
| Clc1ccc2c(c1)CCc1cccnc1C2N1CCN(CCCCc2c[nH]cn2)CC1 (centres unmarked) (as salt: HCl) [Example 12, 8-Chloro-6,11-dihydro-11-[4-[4-(1H-imidazol4-yl)butyl]-1-piperazinyl]-5H-benzo[5,6]cyclohepta[1,2-b]pyridine] | 165 to 170 °C (dec.) |  |  |  |  |
| Clc1ccc2c(c1)CCc1cccnc1C2N1CCN(Cc2c[nH]cn2)CC1 (single isomer, unassigned; (+)) [(+)-(8-Chloro-6,11-dihydro-5H-benzo[5,6]cyclohepta[1,2-b]pyridin-11-yl)-4-[(1H-imidazol-4-yl)methyl]-piperazine] |  | 0.0046 |  |  | 0.121 |
| Clc1ccc2c(c1)CCc1cccnc1C2C1CCN(CCCCCc2c[nH]cn2)CC1 (centres unmarked) |  | 0.007 |  |  | 0.0225 |
| O=C(CCc1c[nH]cn1)N1CCN(C2c3ccc(Cl)cc3CCc3cccnc32)CC1 (centres unmarked) |  | 0.2 |  | 44 |  |
| Clc1ccc2c(c1)CCc1cccnc1C2=C1CCN(CCCc2c[nH]cn2)CC1 |  | 0.0041 |  |  | 0.26 |
| Clc1ccc2c(c1)CCc1cccnc1C2N1CCN(CCCCc2c[nH]cn2)CC1 (centres unmarked) |  | 0.0315 |  |  | 0.0685 |
| Clc1ccc2c(c1)CCc1cccnc1C2=C1CCN(CCCCCCc2c[nH]cn2)CC1 (as salt: hydrochloride) (hydrate or solvate) [Example 14, 8-Chloro-6,11-dihydro-11-[1-[6-(1H-imidazol-4-yl)hexyl]-4-piperidinylidene]-5H-benzo[5,6]cyclohepta[1,2-b]pyridine] | 162 to 165 °C (dec.) |  |  |  |  |
| O=C(OCCCCc1c[nH]cn1)N1CCN(C2c3ccc(Cl)cc3CCc3cccnc32)CC1 (centres unmarked) |  |  | 36 |  | 0.148 |
| Clc1ccc2c(c1)CCc1cccnc1C2N1CCN(CCc2c[nH]cn2)CC1 (centres unmarked) |  | 0.0056 |  | 53 |  |
| O=C(CCc1c[nH]cn1)N1CCC(=C2c3ccc(Cl)cc3CCc3cccnc32)CC1 |  |  |  | 47 |  |
| Clc1ccc2c(c1)CCc1cccnc1C2C1CCN(Cc2c[nH]cn2)CC1 (single isomer, unassigned) [drawing 60] |  | 0.0012 |  | 15 |  |
| Cn1cnc(CN2CCN(C3c4ccc(Cl)cc4CCc4cccnc43)CC2)c1 (centres unmarked) |  | 0.024 | 84 | 5 |  |
| Clc1ccc2c(c1)CCc1cccnc1C2N1CCN(Cc2c[nH]cn2)CC1 (racemic) (as salt: HCl) (hydrate or solvate) [1-(8-Chloro-6,11-dihydro-5H-benzo[5,6]cyclohepta[1,2-b]pyridin-11-yl)-4-[(1H-imidazol-4-yl)-methyl]-piperazine] | 190.5 to 192 °C (dec.) |  |  |  |  |
| Clc1ccc2c(c1)CCc1cccnc1C2=C1CCN(CCCCCCc2c[nH]cn2)CC1 |  | 0.012 |  |  | 0.0335 |
| Clc1ccc2c(c1)CCc1cccnc1C2=C1CCN(Cc2c[nH]cn2)CC1 |  | 0.016 |  |  | 0.66 |
| Clc1ccc2c(c1)CCc1cccnc1C2=C1CCN(CCCCCc2c[nH]cn2)CC1 |  | 0.0025 |  |  | 0.0265 |
| Clc1ccc2c(c1)CCc1cccnc1C2C1CCN(CCCCCCc2c[nH]cn2)CC1 (centres unmarked) |  | 0.0055 |  |  | 0.0275 |
| Clc1ccc2c(c1)CCc1cccnc1C2N1CCN(CCCc2c[nH]cn2)CC1 (centres unmarked) |  | 0.0075 |  |  | 0.173 |
| Clc1ccc2c(c1)CCc1cccnc1C2C1CCN(Cc2c[nH]cn2)CC1 (single isomer, unassigned) [drawing 61] |  | 0.182 |  |  | 0.091 |
| Clc1ccc2c(c1)CCc1cccnc1C2N1CCN(Cc2c[nH]cn2)CC1 (single isomer, unassigned; (-)) [(−)-(8-Chloro-6,11-dihydro-5H-benzo[5,6]cyclohepta[1,2-b]pyridin-11-yl)-4-[(1H-imidazol-4-yl)methyl]-piperazine] |  | 0.0154 |  |  | 0.133 |
| Clc1ccc2c(c1)CCc1cccnc1C2C1CCN(CCCCc2c[nH]cn2)CC1 (centres unmarked) |  | 0.0143 |  |  | 0.042 |
| Clc1ccc2c(c1)CCc1cccnc1C2N1CCN(CCCCCCc2c[nH]cn2)CC1 (centres unmarked) |  | 0.008 |  |  | 0.041 |
| Clc1ccc2c(c1)CCc1cccnc1C2N1CCN(CCCCCc2c[nH]cn2)CC1 (centres unmarked) |  | 0.0125 |  |  | 0.032 |
| O=C(NCCCCc1c[nH]cn1)N1CCN(C2c3ccc(Cl)cc3CCc3cccnc32)CC1 (centres unmarked) |  | 0.25 |  |  | 0.047 |
